Type in all cases: biochemical
One experiment deals with thrombin (Homo sapiens, UniProt P00734). As to the kind of experiment: Kinetic parameters of hydrolysis of the substrates by thrombin in buffer A at 37° C. (Example 4, Table 3). Details: Pure human α-thrombin; gift of Dr. T. Lindhout (University of Limburg, Maastricht). The settings on record: buffer A, 37° C. An outline of the steps:
(§1)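 p-Nitroaniline release followed at 405 nm in buffer A at 37 °C, with at least six substrate levels of 200–2000 μM. Thrombin at 0.5–50 nM, factor Xa at 50 nM; Km and kcat from initial velocities by linear regression on Michaelis-Menten.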

Experiment [1] concerns the target T1, factor Xa (Homo sapiens, UniProt P00742).
T1 construct: human factor Xa samples; gift of Dr. T. Lindhout (University of Limburg, Maastricht)
As to the kind of experiment: Kinetic parameters of hydrolysis of the substrates by factor Xa in buffer A at 37° C. (Example 4, Table 3). The settings on record: buffer A, 37° C., 50 nM factor Xa. Details: key to Factor Xa kcat: NH: no hydrolysis. An outline of the steps:
as §1

The target in experiment [2] is T1, factor Xa. Description: Kinetics of hydrolysis of substrates by human factor Xa in buffer A at 37° C. (Example 2, Table 2). Details: key to kcat: NH: not hydrolyzed by factor Xa. The protocol: Kinetic parameters: The hydrolysis experiments were run in buffer A at 37° C. The liberation of p-nitroaniline was monitored at 405 nm in a dual wavelength (405-546 nm) spectrophotometer made in our workshop, using a personal computer for data recording. In a polystyrene microcuvette (total volume 500 μL), buffer A and substrate solution were added to obtain a final substrate concentration between 1 to 2000 μM. After 5 min of incubation at 37° C., enzyme solution was added to achieve a final concentration between 0.5 to 100 nM. The measurement was carried out at 37° C. in a thermostated cuvette-holder. The Michaelis constant (Km) and the catalytic constant (kcat) were obtained by measuring initial reaction velocities at different substrate concentrations. The data obtained were fitted by linear regression on the Michaelis-Menten equation.
Kinetic parameters: In a preliminary experiment, the substrate was hydrolyzed under the following conditions: enzyme concentration: 10 to 20 nM, substrate concentration: 200 μM in buffer A to get an impression of the initial velocity. […] The results are given in table 1 and 2 for thrombin and factor Xa respectively. The Km and kcat for each substrate were determined from the initial velocities measured for at least six substrate concentrations in the concentration range as given. The enzyme concentration used gives a good signal to noise ratio. The data given are obtained from one or two experiments. The data from table 1 and 2 were only used as the first selection criterion to get a rough impression of the hydrolysis behaviour. Notwithstanding the preliminary character of the measurement it was helpful in the design of the substrates of our interest.

As usually defined, the Km is the substrate concentration at which the rate is half of its maximum.

Peptide text beside a SMILES is read from it. * marks the point of attachment. pNA = O=[N+]([O-])c1ccc(N*)cc1

T1 sequence (P00742 41-179 limits assumed): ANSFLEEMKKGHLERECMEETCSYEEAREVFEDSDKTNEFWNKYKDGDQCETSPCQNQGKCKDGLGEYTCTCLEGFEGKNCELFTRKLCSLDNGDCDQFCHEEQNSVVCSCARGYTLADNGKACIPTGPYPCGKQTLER
T1 sequence (P00742 235-488 limits assumed): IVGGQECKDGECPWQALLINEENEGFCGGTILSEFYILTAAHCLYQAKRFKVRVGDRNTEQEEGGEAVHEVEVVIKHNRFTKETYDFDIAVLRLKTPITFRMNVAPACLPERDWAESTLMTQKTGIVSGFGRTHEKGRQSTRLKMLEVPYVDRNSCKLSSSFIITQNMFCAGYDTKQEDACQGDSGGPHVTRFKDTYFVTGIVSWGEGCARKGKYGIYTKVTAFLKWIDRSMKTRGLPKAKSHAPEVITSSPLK

On to `CC(C)[C@H](N)C(=O)N[C@@H](CCCNC(=N)N)C(=O)Nc1ccc([N+](=O)[O-])cc1.Cl.Cl` [2HCl.H-Val-Arg-pNA] (H-Val-Arg-pNA), for which, at thrombin, the Km turned out to be 1240 µM, the Thrombin kcat came to 0.23 s⁻¹ and the “Thrombin kcat /Km” value was found to be 186 M/s. Moreover, the “Factor Xa kcat” value at factor Xa [1] is reported as “NH”. Moreover, the kcat entry at factor Xa [2] is “NH”.

Source of the values: patent US6207399A, “Methods of determining endogenous thrombin potential (ETP) and thrombin substrates for use in said methods” (Hemker; Hendrik Coenraad, priority 1995, dated 2001).
